From patent US11759430B2, “Active substance carrier comprising biopolymer” (AMOREPACIFIC CORPORATION, priority 2019, dated 2023)

Tested on: stratum corneum of the cultured artificial skin (human epidermal keratinocytes)
Assay: Test Example 2: transdermal penetration of hydrophobic fluorescent dye (Nile red) into artificial skin
Assay type: in vitro ADME
Details: after a night, stratum corneum average thickness 10.73 μm, FIG. 7
Procedure: The following experiment was conducted in order to investigate whether the core-shell network structure according to an exemplary embodiment of the present disclosure serves as a carrier facilitating the transdermal absorption of an active substance.
First, a core-shell network solution (Example 3) was prepared in the same manner as in Example 2 except that, instead of the red ginseng saponin as the active substance, a hydrophobic fluorescent dye (Nile red, Sigma-Aldrich) was encapsulated at a concentration of […]. The contents of zein, pullulan and pectin of Example 3 based on the total weight of the composition were 0.01 wt %, 0.02 wt % and 0.002 wt %, respectively. […]
The cells were exposed to the air by removing the medium except for the part occupied by the cells. […] After freezing using an OCT (Cryomatrix, Thermo Scientific) and slicing to a thickness of 10 μm, the frozen sections were imaged with a fluorescence microscope (BX53, Olympus, Japan) and a microscopic digital camera (DP72, Olympus, Japan). […] To compare the effect of the present disclosure, the stratum corneum of the skin was treated only with a hydrophobic fluorescent dye in Comparative Example 3, and the degree of penetration of the hydrophobic fluorescent dye was analyzed in the same manner.

Which “penetration depth of the dye into the stratum corneum, on average” value does the source give for `CCN(CC)c1ccc2nc3c4ccccc4c(=O)cc-3oc2c1` [Comparative Example 3, Nile red] here?
Its value is “about 3.62 μm”.
